Test results reported in ChEMBL document CHEMBL1122332, “Synthesis of esters of phosphonoformic acid and their antiherpes activity” (J Med Chem, 1983).
Active and inactive are the calls of the source. No cut-off for these calls is given here.

What was measured:
[1] = tested on: Human alphaherpesvirus 1; assay: Evaluated for antiviral activity against cutaneous HSV-1 C42 infections in guinea pig; Active; type: functional, organism-based
[2] = tested on: Human alphaherpesvirus 1; assay: Evaluated for antiviral activity against cutaneous HSV-1 C42 infections in guinea pig; Not active; type: functional, organism-based

| Compound | Effect [1] | Effect [2] |
| --- | --- | --- |
| Cc1cccc(C)c1OP(=O)(O)C(=O)O | Active |  |
| CCOC(=O)c1ccc(OC(=O)P(=O)(OC)OC)cc1 |  | inactive |
| COP(=O)(O)C(=O)OCc1ccccc1 |  | inactive |
| CCOP(=O)(OCC)C(=O)Oc1ccc(OC)cc1 |  | inactive |
| O=C(OCc1ccccc1)P(=O)(O)O |  | inactive |
| CCOC(=O)c1ccc(OC(=O)P(=O)(OCC)OCC)cc1 |  | inactive |
| O=C(Oc1ccc(Cl)cc1)P(=O)(O)O | Active |  |
| COC(=O)P(=O)(OC)OC12CC3CC(CC(C3)C1)C2 (configuration not stated) |  | inactive |
| COC(=O)P(=O)(O)Oc1ccc2c(c1)CCC2 |  | inactive |
| COC(=O)P(=O)(OC(C)C)OC(C)C |  | inactive |
| CCOC(=O)c1ccc(OC(=O)P(=O)(O)O)cc1 | Active |  |
| CCCCOP(=O)(OCCCC)C(=O)OC |  | inactive |
| COc1ccc(OC(=O)P(=O)(O)O)cc1 | Active |  |
| COP(=O)(OC)C(=O)OC1CCCCC1 |  | inactive |
| CC(C)OP(=O)(OC(C)C)C(=O)Oc1ccc([N+](=O)[O-])cc1 |  | inactive |
| Cc1ccc(OP(=O)(O)C(=O)O)cc1 | Active |  |
| COP(=O)(OC)C(=O)Oc1ccc([N+](=O)[O-])cc1 |  | inactive |
| CCCCOC(=O)P(=O)(OC)OC |  | inactive |
| CCOP(=O)(OCC)C(=O)Oc1ccc(Cl)cc1 |  | inactive |

| Compound | Effect [1] | Effect [2] |
| --- | --- | --- |
| CCOP(=O)(O)C(=O)Oc1ccc(OC)cc1 | Active |  |
| COP(=O)(O)C(=O)Oc1ccccc1 | Active |  |
| COP(=O)(OC)C(=O)Oc1ccc(C)cc1 |  | inactive |
| O=C(Oc1ccccc1)P(=O)(O)Oc1ccccc1 | Active |  |
| CC(C)OC(=O)P(=O)(O)O |  | inactive |
| O=C(O)P(=O)(O)Oc1ccccc1 | Active |  |
| O=C(O)P(=O)(O)OC12CC3CC(CC(C3)C1)C2 | Active |  |
| CCOP(=O)(Oc1ccc(C(C)=O)cc1)C(=O)OC (configuration not stated) |  | inactive |
| O=C(Oc1ccc(Cl)c(Cl)c1)P(=O)(O)O | Active |  |
| Cc1ccc(OP(=O)(Oc2ccc(C)cc2)C(=O)Oc2ccccc2)cc1 | Active |  |
| COP(=O)(OC)C(=O)Oc1ccccc1 |  | inactive |
| CCOP(=O)(Oc1ccc(Cl)cc1)C(=O)Oc1ccccc1 (configuration not stated) | Active |  |
| COC(=O)P(=O)(OC)Oc1ccc(C(C)=O)cc1 (configuration not stated) |  | inactive |
| COC(=O)P(=O)(O)Oc1c(C)cccc1C |  | inactive |
| COP(=O)(OC)C(=O)OCc1ccccc1 |  | inactive |
| Cc1ccc(OC(=O)P(=O)(O)O)cc1 | Active |  |
| CCCCOC(=O)P(=O)(O)O |  | inactive |
| CCOP(=O)(Oc1ccc(OC)cc1)C(=O)Oc1ccccc1 (configuration not stated) | Active |  |
| CCOP(=O)(O)C(=O)O | Active |  |

| Compound | Effect [1] | Effect [2] |
| --- | --- | --- |
| O=C(OCC1CCCC1)P(=O)(O)O |  | inactive |
| COP(=O)(OC)C(=O)Oc1ccc(Cl)c(Cl)c1 |  | inactive |
| O=C(O)P(=O)(O)Oc1ccc2c(c1)CCC2 | Active |  |
| COc1ccc(OP(=O)(O)C(=O)O)cc1 | Active |  |
| O=C(O)P(=O)(O)O | Active |  |
| O=C(Oc1ccccc1)P(=O)(O)O | Active |  |
| COP(=O)(O)C(=O)O | Active |  |
| Cc1ccc(OP(=O)(O)C(=O)Oc2ccccc2)cc1 | Active |  |
| CCOP(=O)(Oc1c(C)cccc1C)C(=O)OC (configuration not stated) |  | inactive |
| CCCCOP(=O)(O)C(=O)OC |  | inactive |
| CCOP(=O)(Oc1ccc2c(c1)CCC2)C(=O)OC (configuration not stated) |  | inactive |
| COP(=O)(OC)C(=O)OC(C)C |  | inactive |
| O=C(OC1CCCCC1)P(=O)(O)O |  | inactive |
| CCOC(=O)P(=O)(O)Oc1ccccc1 |  | inactive |
| CCOP(=O)(O)C(=O)Oc1ccc(Cl)cc1 | Active |  |
| CCOC(=O)P(=O)(O)O |  | inactive |
| O=C(Oc1ccccc1)P(=O)(Oc1ccccc1)Oc1ccccc1 | Active |  |
| COP(=O)(OC)C(=O)OCC1CCCC1 |  | inactive |
| CCOC(=O)P(=O)(O)OCC |  | inactive |
